These results are taken from patent US20260274832A1, “COMPOUNDS AND THEIR USE IN TREATING CANCER” (ASTRAZENECA AB, priority 2023, published 2026).

The target of experiment [1] is T1, AR (L702H) in LNCaP cells (Homo sapiens, UniProt P10275, L702H/T878A).
T1 construct: engineered to introduce the mutation L702H into the AR gene using CRISPR/Cas9; endogenous in cells; host or cells: LNCaP cells edited by CRISPR/Cas9 at the AR gene
Description: LNCaP Androgen Receptor L702H Imaging Assay (LNCaP cells engineered by CRISPR/Cas9). The note with it: LNCaP cells with AR L702H mutation, 24 h incubation; for DC50: concentration giving 50% of maximum degradation of AR (L702H) per curve fit; for Dmax: LNCaP. Type of experiment: cell-based. Summed up:
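CRISPR-engineered LNCaP cells carrying AR L702H were treated 24 h at 37 °C with a 12-point compound dose response (0.3% DMSO), then fixed and immunostained for AR with DRAQ5 nuclear counterstain. Nuclear AR was quantified by imaging, normalized to positive control; DC50 and Dmax came from Hill or bell-shaped fits.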

Experiment [2] deals with T2, AR (AR-full length) in LNCaP cells (Homo sapiens, UniProt P10275, T878A).
T2 construct: the prostate cancer cell line LNCaP (expressing AR-full length); endogenous in cells; host or cells: LNCaP
T2 sequence (P10275 whole entry T878A): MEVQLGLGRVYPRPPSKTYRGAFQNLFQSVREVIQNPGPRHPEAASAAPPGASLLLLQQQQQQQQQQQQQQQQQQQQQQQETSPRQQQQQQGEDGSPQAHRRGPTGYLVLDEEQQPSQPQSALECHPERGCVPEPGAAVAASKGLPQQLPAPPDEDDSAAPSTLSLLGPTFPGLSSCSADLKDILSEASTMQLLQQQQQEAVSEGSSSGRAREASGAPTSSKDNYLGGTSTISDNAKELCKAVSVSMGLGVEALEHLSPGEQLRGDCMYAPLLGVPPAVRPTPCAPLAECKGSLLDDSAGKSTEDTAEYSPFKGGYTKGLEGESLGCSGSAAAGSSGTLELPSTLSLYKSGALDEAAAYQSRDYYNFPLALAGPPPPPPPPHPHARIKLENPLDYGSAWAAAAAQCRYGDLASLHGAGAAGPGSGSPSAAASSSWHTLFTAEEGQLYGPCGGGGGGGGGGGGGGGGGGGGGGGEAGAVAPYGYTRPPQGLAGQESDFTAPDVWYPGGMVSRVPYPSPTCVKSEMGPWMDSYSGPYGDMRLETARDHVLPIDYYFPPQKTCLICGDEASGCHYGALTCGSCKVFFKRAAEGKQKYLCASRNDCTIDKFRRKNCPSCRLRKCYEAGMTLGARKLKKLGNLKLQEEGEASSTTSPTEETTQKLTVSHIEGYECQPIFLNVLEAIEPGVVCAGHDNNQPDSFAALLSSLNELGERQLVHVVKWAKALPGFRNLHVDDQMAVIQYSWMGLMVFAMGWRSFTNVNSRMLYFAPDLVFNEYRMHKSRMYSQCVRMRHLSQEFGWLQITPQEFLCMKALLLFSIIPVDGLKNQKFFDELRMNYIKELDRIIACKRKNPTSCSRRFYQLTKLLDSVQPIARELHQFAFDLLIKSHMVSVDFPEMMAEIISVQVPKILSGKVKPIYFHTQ
T2 sequence (Q96SW2 whole entry partner): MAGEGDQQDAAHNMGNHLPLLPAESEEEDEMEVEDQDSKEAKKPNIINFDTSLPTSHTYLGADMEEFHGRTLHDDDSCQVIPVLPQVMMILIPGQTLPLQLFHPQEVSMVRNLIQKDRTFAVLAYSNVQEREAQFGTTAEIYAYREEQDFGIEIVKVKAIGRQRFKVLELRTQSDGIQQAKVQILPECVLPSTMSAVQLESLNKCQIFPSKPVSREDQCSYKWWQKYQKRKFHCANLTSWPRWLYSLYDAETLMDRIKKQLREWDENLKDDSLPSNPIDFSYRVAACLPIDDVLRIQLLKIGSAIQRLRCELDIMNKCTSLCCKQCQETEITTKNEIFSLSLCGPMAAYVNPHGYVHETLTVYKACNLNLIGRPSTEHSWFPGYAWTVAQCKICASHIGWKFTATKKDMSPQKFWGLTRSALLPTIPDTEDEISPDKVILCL
Description: LNCaP Androgen Receptor Imaging Assay (immunofluorescence of endogenous nuclear AR). Type of experiment: cell-based. As to conditions: 24 h incubation; for DC50: concentration giving 50% of maximum degradation of AR per curve fit, single experiment or average of two or more; for Dmax: LNCaP. Put shortly: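 LNCaP cells (12,000/well) received a 12-point compound dose series (0.3% DMSO) for 24 h at 37° C., then were PFA-fixed and stained for AR (AR441) and nuclei (DRAQ5). Nuclear AR was quantified by imaging, normalized to a 3 μM AR PROTAC control; DC50 and Dmax came from Hill/bell curve fits.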

Setting [3] is: maximum degradation observed, normalized as % of positive control.
Where [4] appears, read: maximum degradation observed, normalized as % of positive control (prior art AR PROTAC at 3 μM).

The structures appear in SMILES notation.

T1 sequence (P10275 whole entry L702H/T878A): as the sequence (P10275 whole entry T878A) above, with L702H counted along it
T1 sequence (Q96SW2 whole entry partner): as the sequence (Q96SW2 whole entry partner) above

Take `N#Cc1c[nH]c2c(N3CCC[C@H](c4ccc(N5CCC(CN6CCC(n7ccc8c(N9CCC(=O)NC9=O)cccc87)CC6)CC5)cc4)C3)ccc(Cl)c12` [Example 26, 4-Chloro-7-[(3R)-3-{4-[4-({4-[4-(2,4-dioxo-1,3-diazinan-1-yl)-1H-indol-1-yl]piperidin-1-yl}methyl)piperidin-1-yl]phenyl}piperidin-1-yl]-1H-indole-3-carbonitrile]: the half-maximal degradation concentration (DC50) amounted to 7 nM in experiment [1] and 9 nM in experiment [2]. The Dmax is 106% in experiment [1] (setting [3]) and 92% in experiment [2] (setting [4]).
As for `COc1nc(N2CCN(CC3CCN(c4ccc(C5CCN(c6ccc(Cl)c7c(C#N)c[nH]c67)CC5)cc4)CC3)CC2)cc2c1C(=O)N(C1CCC(=O)NC1=O)C2` (single isomer, unassigned) [Example 36, 4-Chloro-7-[4-(4-{4-[(4-{2-[(3S*)-2,6-dioxopiperidin-3-yl]-4-methoxy-3-oxo-2,3-dihydro-1H-pyrrolo[3,4-c]pyridin-6-yl}piperazin-1-yl)methyl]piperidin-1-yl}phenyl)piperidin-1-yl]-1H-indole-3-carbonitrile], the figures for the DC50 in experiment [1] and in experiment [2] were 7 nM and 5 nM, respectively. In experiment [1] (setting [3]), the “LNCaP AR (L702H) Degradation Dmax” value is given as 102%. Moreover, in experiment [2] (setting [4]), the “LNCaP AR Degradation Dmax” value was found to be 102%.
Take `N#Cc1n[nH]c2c(N3CCC[C@@H](c4ccc(N5CCC(CN6Cc7cc8c(cc7C6)C(=O)N(C6CCC(=O)NC6=O)C8=O)CC5)cc4)C3)ccc(Cl)c12` (stereo partly drawn) [Example 76, 4-Chloro-7-{(3S)-3-[4-(4-{[6-(2,6-dioxopiperidin-3-yl)-5,7-dioxo-3,5,6,7-tetrahydropyrrolo[3,4-f]isoindol-2(1H)-yl]methyl}piperidin-1-yl)phenyl]piperidin-1-yl}-1H-indazole-3-carbonitrile]: the figures for the DC50 in experiment [1] and in experiment [2] were 38 nM and 18 nM, respectively. Moreover, the Dmax in experiment [1] (setting [3]) was found to be 104%; in experiment [2] (setting [4]), 92%.
As for `N#Cc1c[nH]c2c(N3CCC(c4cnc(N5CCC(CN6CCC(n7ccc8c(N9CCC(=O)NC9=O)cccc87)CC6)CC5)cn4)CC3)ccc(Cl)c12` [Example 67], the DC50 is 14 nM in experiment [1] and 4 nM in experiment [2]. Further, the results for the Dmax in experiment [1] (setting [3]) and in experiment [2] (setting [4]) were 87% and 98%, respectively.
Consider `Cc1cc(N2CCC(=O)NC2=O)cc2ccn(C3CCN(CC4CCN(c5ccc(C6CCN(c7ccc(Cl)c8c(C#N)c[nH]c78)CC6)cc5)CC4)CC3)c12` [Example 102, 4-Chloro-7-(4-{4-[4-({4-[5-(2,4-dioxo-1,3-diazinan-1-yl)-7-methyl-1H-indol-1-yl]piperidin-1-yl}methyl)piperidin-1-yl]phenyl}piperidin-1-yl)-1H-indole-3-carbonitrile], for which the half-maximal degradation concentration (DC50) in experiment [1] came out at 44 nM; in experiment [2], 52 nM. Besides, the Dmax was 106% in experiment [1] (setting [3]) and 86% in experiment [2] (setting [4]).
As for `N#Cc1c[nH]c2c(N3CCC(c4ccc(N5CCC(CN6CCN(c7ccc8c(c7)CN(C7CCC(=O)NC7=O)C8=O)CC6)CC5)nc4)CC3)ccc(Cl)c12` (stereo not drawn) [Example 109, 4-Chloro-7-(4-{6-[4-({4-[2-(2,6-dioxopiperidin-3-yl)-1-oxo-2,3-dihydro-1H-isoindol-5-yl]piperazin-1-yl}methyl)piperidin-1-yl]pyridin-3-yl}piperidin-1-yl)-1H-indole-3-carbonitrile], the results for the 50% degradation concentration (DC50) in experiment [1] and in experiment [2] were 10 nM and 5 nM, respectively. The values for the Dmax in experiment [1] (setting [3]) and in experiment [2] (setting [4]) were 96% and 97%, respectively.
For the compound `N#Cc1c[nH]c2c(N3CCC(c4ccc(N5CCC(CN6CCN(c7ccc8c(c7)CN(C7CCC(=O)NC7=O)C8=O)CC6)CC5)cc4)CC3)ccc(Cl)c12` (single isomer, unassigned) [Example 18, 4-Chloro-7-[4-(4-{4-[(4-{2-[(3R*)-2,6-dioxopiperidin-3-yl]-1-oxo-2,3-dihydro-1H-isoindol-5-yl}piperazin-1-yl)methyl]piperidin-1-yl}phenyl)piperidin-1-yl]-1H-indole-3-carbonitrile], the results for the half-maximal degradation concentration (DC50) in experiment [1] and in experiment [2] were 18 nM and 14 nM, respectively. For the same compound, the figures for the Dmax in experiment [1] (setting [3]) and in experiment [2] (setting [4]) were 96% and 93%, respectively.
For `N#Cc1c[nH]c2c(N3CCC(c4ccc(OCCCCN5CCC(n6ccc7c(N8CCC(=O)NC8=O)cccc76)CC5)cc4)CC3)ccc(Cl)c12` [Example 46, 4-Chloro-7-{4-[4-(4-{4-[4-(2,4-dioxo-1,3-diazinan-1-yl)-1H-indol-1-yl]piperidin-1-yl}butoxy)phenyl]piperidin-1-yl}-1H-indole-3-carbonitrile], in that order: 12 nM, 4 nM, 98% and 101%.
Taken in the same sequence, the figures for `N#Cc1c[nH]c2c(N3CCC(c4ccc(OCCCCN5CCN(c6ccc7c(c6)CN(C6CCC(=O)NC6=O)C7=O)CC5)cc4)CC3)ccc(Cl)c12` (stereo not drawn) [Example 45] were 6 nM, 3 nM, 95% and 96%.
For the compound `COc1nc(N2CCN(C3CCN(c4ccc(C5CCN(c6ccc(Cl)c7c(C#N)c[nH]c67)CC5)cc4)CC3)CC2)cc2c1C(=O)N(C1CCC(=O)NC1=O)C2` (stereo not drawn) [Example 86, 4-Chloro-7-{4-[4-(4-{4-[2-(2,6-dioxopiperidin-3-yl)-4-methoxy-3-oxo-2,3-dihydro-1H-pyrrolo[3,4-c]pyridin-6-yl]piperazin-1-yl}piperidin-1-yl)phenyl]piperidin-1-yl}-1H-indole-3-carbonitrile], the results for the half-maximal degradation concentration (DC50) in experiment [1] and in experiment [2] were 14 nM and 15 nM, respectively. The Dmax in experiment [1] (setting [3]) was determined as 99%; in experiment [2] (setting [4]), 94%.
For the compound `Cc1ccc(C2CCCN(c3cccc(OCCCCN4CCN(c5ccc6c(c5)CN(C5CCC(=O)NC5=O)C6=O)CC4)c3)C2)c2[nH]cc(C#N)c12` (single isomer, unassigned) [Example 80, 7-{(3R*)-1-[3-(4-{4-[2-(2,6-dioxopiperidin-3-yl)-1-oxo-2,3-dihydro-1H-isoindol-5-yl]piperazin-1-yl}butoxy)phenyl]piperidin-3-yl}-4-methyl-1H-indole-3-carbonitrile], the half-maximal degradation concentration (DC50) in experiment [1] turned out to be 3100 nM; in experiment [2], 38 nM. Further, the Dmax in experiment [1] (setting [3]) was found to be 100%; in experiment [2] (setting [4]), 64%.
`COc1nc(N2CCN(CCC3CCN(c4ccc(C5CCN(c6ccc(Cl)c7c(C#N)c[nH]c67)CC5)cc4)CC3)CC2)cc2c1C(=O)N(C1CCC(=O)NC1=O)C2` (stereo not drawn) [Example 87, 4-Chloro-7-(4-{4-[4-(2-{4-[2-(2,6-dioxopiperidin-3-yl)-4-methoxy-3-oxo-2,3-dihydro-1H-pyrrolo[3,4-c]pyridin-6-yl]piperazin-1-yl}ethyl)piperidin-1-yl]phenyl}piperidin-1-yl)-1H-indole-3-carbonitrile]: the DC50 in experiment [1] was determined as 8 nM; in experiment [2] it was 5 nM. For the same compound, the Dmax in experiment [1] (setting [3]) worked out at 94%; in experiment [2] (setting [4]), 95%.
Taken in the same sequence, the figures for `N#Cc1c[nH]c2c(N3CCC(c4ccc(N5CCC(CN6CCN(c7ccc(C(=O)NC8CCC(=O)NC8=O)c(F)c7)CC6)CC5)cc4)CC3)ccc(F)c12` (stereo not drawn) [Example 105, 4-{4-[(1-{4-[1-(3-Cyano-4-fluoro-1H-indol-7-yl)piperidin-4-yl]phenyl}piperidin-4-yl)methyl]piperazin-1-yl}-N-(2,6-dioxopiperidin-3-yl)-2-fluorobenzamide] were 49 nM, 61 nM, 95% and 89%.
Turning to `COc1cc(N2CCN(CC3CCN(c4ccc(C5CCN(c6ccc(Cl)c7c(C#N)cn(C)c67)CC5)cc4)CC3)CC2)cc2c1C(=O)N(C1CCC(=O)NC1=O)C2` (stereo not drawn) [Example 112, 4-chloro-7-(4-{4-[4-({4-[2-(2,6-dioxopiperidin-3-yl)-7-methoxy-1-oxo-2,3-dihydro-1H-isoindol-5-yl]piperazin-1-yl}methyl)piperidin-1-yl]phenyl}piperidin-1-yl)-1-methyl-1H-indole-3-carbonitrile], the DC50 in experiment [1] was 17 nM; in experiment [2], greater than 3000 nM. Further, in experiment [1] (setting [3]), the Dmax was found to be 87%.
As to `Cc1ccc(N2CCC(c3ccc(OCCCCN4CCC(n5ccc6c(N7CCC(=O)NC7=O)cccc65)CC4)cc3)CC2)c2[nH]cc(C#N)c12` [Example 29, 7-{4-[4-(4-{4-[4-(2,4-Dioxo-1,3-diazinan-1-yl)-1H-indol-1-yl]piperidin-1-yl}butoxy)phenyl]piperidin-1-yl}-4-methyl-1H-indole-3-carbonitrile], the DC50 in experiment [1] worked out at 60 nM; in experiment [2] it was 79 nM. Further, the Dmax in experiment [1] (setting [3]) was 74%; in experiment [2] (setting [4]) it was 94%.
For `COc1nc(N2CCN(CC3CCN(c4ccc(C5CCN(c6ccc(Cl)c7c(C#N)c[nH]c67)CC5)cc4)CC3)CC2)cc2c1C(=O)N(C1CCC(=O)NC1=O)C2` (single isomer, unassigned) [Example 35, 4-Chloro-7-[4-(4-{4-[(4-{2-[(3R*)-2,6-dioxopiperidin-3-yl]-4-methoxy-3-oxo-2,3-dihydro-1H-pyrrolo[3,4-c]pyridin-6-yl}piperazin-1-yl)methyl]piperidin-1-yl}phenyl)piperidin-1-yl]-1H-indole-3-carbonitrile], in that order: 29 nM, 19 nM, 91% and 84%.

For orientation: DC50 means the midpoint of the concentration-degradation curve. Low readings indicate degradation at low concentration, high ones degradation only at high concentration. Broadly, the Dmax is the greatest extent of degradation seen.
